Measured values published in patent publication US11365183B2, “Eicosanoid derivatives” (MAX-DELBRUECK-CENTRUM FUER MOLEKULARE MEDIZIN, priority 2009, dated 2022).

Assays:
[1] = test system: neonatal rat cardiomyocytes (NRCMs); experiment: Response of NRCMs to increased extracellular Ca2+ and ß-adrenergic stimulation; format: cell-based; conditions: 30 nM added 5 min before
Description: Compound C11 was synthesized as described above (example 11). NRCMs were isolated and cultured as in Example 19. The basal Ca^2+-concentration of the medium was 1.2 mM. Increased extracellular Ca^2+-concentrations (2.2, 5.2 and 8.2 mM) were adjusted by adding appropriate amounts of a 1 M CaCl2 solution to the cultures. Isoproterenol (from Sigma-Aldrich) was used as ß-adrenoreceptor agonist and added to the cultures to give final concentrations of 0.1, 1 or 10 μM. C11 was used at a final concentration of 30 nM and added to the cultures 5 min before changing the Ca^2+-concentration or adding isoproterenol. Controls were performed in the absence of C11.

[2] = test system: neonatal rat cardiomyocytes (NRCMs); experiment: Chronotropic effect on spontaneous beating rate of cultured neonatal rat cardiomyocytes (identification of agonists); format: cell-based; conditions: 30 nM, incubation time 5 min
Text: This negative chronotropic effect reflects the capacity of the analogs to interact with and to activate a G-protein coupled receptor or other primary cellular targets that reduce the contractility of cardiomyocytes under basal and stress-induced conditions.
The compounds included EPA and 17,18-EETeTr (compounds 01 and 02; purchased from Cayman Chemical) as well as all but one (compound 16) of the analogs synthesized as described in examples 1-24. The R,S— and S,R-enantiomers of 17,18-EETeTr (compounds 03 and 04) were prepared resolving the racemic mixture (compound 02) by means of chiral-phase HPLC as described previously (Barbosa-Sicard E, Markovic M, Honeck H, Christ B, Muller D N, Schunck W H. Biochem Biophys Res Commun. 2005 Apr. 22; 329(4):1275-81). Before use, the compounds to be tested were prepared as 1000-fold stock solutions in ethanol.
Isolation and cultivation of NRCMs were performed as described previously (Wallukat, G; Wollenberger, A. Biomed Biochim Acta. 1987; 78:634-639; Wallukat G, Homuth V, Fischer T, Lindschau C, Horstkamp B, Jupner A, Baur E, Nissen E, Vetter K, Neichel D, Dudenhausen J W, Haller H, Luft F C. J Clin Invest. 1999; 103: 945-952). Briefly, neonatal Wistar rats (1-2 days old) were killed in conformity to the recommendations of the Community of Health Service of the City of Berlin and the cardiomyocytes were dissociated from the minced ventricles with a 0.2% solution of crude trypsin. The isolated cells were then cultured as monolayers on the bottom (12.5 cm^2) of Falcon flasks in 2.5 ml of Halle S M 20-I medium equilibrated with humidified air. The medium contained 10% heat-inactivated FCS and 2 μmol/l fluoro-deoxyuridine (Serva, Heidelberg, Germany), the latter to prevent proliferation of non-muscle cells. The NRCMs (2.4×10^6 cells/flask) were cultured at 37° C. in an incubator. After 5 to 7 days, the NRCMs formed spontaneously beating cell clusters. […] On the day of the experiment, the culture medium was replaced by 2.0 ml fresh serum-containing medium. Two hours later, the beating rates were monitored at 37° C. using an inverted microscope equipped with a heating stage. To determine the basal rate, 6 to 8 individual clusters were selected and the number of contractions was counted for 15 sec. After that, the compound to be tested was added to the culture and the beating rate of the same clusters was monitored 5 min later again. Based on the difference between the basal and compound-induced beating rate of the individual clusters, the chronotropic effects (Δ beats/min) were calculated and are given as mean±SE values. N refers to the number of clusters monitored which originated, in general, from at least three independent NRCM cultures.
This effect was fully expressed using an EPA concentration of 3.3 μM and an incubation time of 30 min. In contrast, 17,18-EETeTr (C02) produced the same effect almost immediately and already in the low nanomolar range (EC50 of 1-2 nM, data not shown). To compare the activity of 17,18-EETeTr with that of its synthetic analogs, all these compounds were tested at a final concentration of 30 nM and using an incubation time of 5 min.

melting point: 83.1 to 83.3 °C
SMILES: CCNC(=O)NCCCC/C=C\CCCCCCCCCC(=O)O [Compound C11, 16-(3-Ethylureido)hexadec-11(Z)-enoic Acid]
beating rate of NRCMs at basal and increased extracellular Ca2+ ([1]; 1.2 mM Ca2+ and up to 8.2 mM): significantly reduced | response of NRCMs to increasing concentrations of isoproterenol ([1]; isoproterenol 0.1, 1 or 10 μM): reduced the response | chronotropic effect (Δ beats/min), mean±SE ([2]; NRCM clusters): −27.0±1.2 beats/min | agonistic / chronotropic effect on NRCMs, in words ([2]; compound alone): Agonists
